Target: T1, Recombinant human KIF18A (1-467 His-tagged) protein (Homo sapiens, UniProt Q8NI77)
T1 construct: Recombinant human KIF18A (1-467 His-tagged) protein; His; made in house
Assay: KIF18A Enzyme Assay: microtubule-stimulated ATPase activity (ADP-Glo)
Type: biochemical
Details: 30 nM KIF18A, 75 μM ATP
Excerpt: KIF18A Enzyme Assay: Microtubule-stimulated ATPase activity assay is used to measure KIF18A enzyme activity after treatment with compound. Compounds were 2-fold serially diluted in DMSO (Sigma Inc) over 22-point concentration range. Recombinant human KIF18A (1-467 His-tagged) protein was expressed using a baculovirus system and purified by affinity chromatography by Amgen Inc. Concentrations of KIF18A protein, microtubules (MT), and ATP in the reaction were optimized for standardized homogenous enzyme assay using ADP-Glorm Kinase/ATPase Assay Kit (Promega Inc). The assay measures ADP formed from the ATPase reaction. […] Read luminescence using EnVision microplate reader with ultra-luminescence module (Perkin Elmer Inc). Concentration-response curve-fitting and IC50 determination was performed using Genedata Screener Software (Standard 15.0.1, Genedata Inc) with a four-parameter logistic regression fit model.
Table A provides data for compounds exemplified in the present application and priority document thereof, as representative compounds of the present invention, as follows: chemical name (as named by either ACD software or ChemDraw (Professional 15.0)) and biological data (IC50 in μM). Ex. # refers to Example No.

T1 sequence (Q8NI77 1-467): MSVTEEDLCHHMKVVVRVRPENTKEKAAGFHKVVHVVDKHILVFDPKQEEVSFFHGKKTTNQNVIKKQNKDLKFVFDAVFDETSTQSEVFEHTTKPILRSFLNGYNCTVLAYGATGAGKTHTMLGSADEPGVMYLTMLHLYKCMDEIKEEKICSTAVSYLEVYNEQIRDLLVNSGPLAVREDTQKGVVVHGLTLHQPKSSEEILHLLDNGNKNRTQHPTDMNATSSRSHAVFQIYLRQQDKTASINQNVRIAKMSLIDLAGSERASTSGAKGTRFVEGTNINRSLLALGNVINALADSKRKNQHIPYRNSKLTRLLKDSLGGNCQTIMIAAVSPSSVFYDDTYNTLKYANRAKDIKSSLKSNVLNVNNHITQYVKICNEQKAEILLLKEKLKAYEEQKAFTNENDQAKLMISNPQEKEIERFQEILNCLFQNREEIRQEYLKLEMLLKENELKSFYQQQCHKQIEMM
T1 sequence (P02550 whole entry partner): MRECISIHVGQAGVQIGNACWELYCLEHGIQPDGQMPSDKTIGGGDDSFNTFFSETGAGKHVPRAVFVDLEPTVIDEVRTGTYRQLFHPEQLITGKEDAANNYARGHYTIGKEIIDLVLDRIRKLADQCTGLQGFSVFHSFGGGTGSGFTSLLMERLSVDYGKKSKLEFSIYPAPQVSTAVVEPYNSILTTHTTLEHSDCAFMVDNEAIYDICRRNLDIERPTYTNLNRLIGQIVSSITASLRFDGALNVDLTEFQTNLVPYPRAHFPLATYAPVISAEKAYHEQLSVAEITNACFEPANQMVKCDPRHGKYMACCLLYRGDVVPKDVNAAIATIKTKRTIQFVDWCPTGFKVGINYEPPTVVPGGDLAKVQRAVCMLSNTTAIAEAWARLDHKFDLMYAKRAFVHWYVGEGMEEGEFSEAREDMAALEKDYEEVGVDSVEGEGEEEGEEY
T1 sequence (P02554 whole entry partner): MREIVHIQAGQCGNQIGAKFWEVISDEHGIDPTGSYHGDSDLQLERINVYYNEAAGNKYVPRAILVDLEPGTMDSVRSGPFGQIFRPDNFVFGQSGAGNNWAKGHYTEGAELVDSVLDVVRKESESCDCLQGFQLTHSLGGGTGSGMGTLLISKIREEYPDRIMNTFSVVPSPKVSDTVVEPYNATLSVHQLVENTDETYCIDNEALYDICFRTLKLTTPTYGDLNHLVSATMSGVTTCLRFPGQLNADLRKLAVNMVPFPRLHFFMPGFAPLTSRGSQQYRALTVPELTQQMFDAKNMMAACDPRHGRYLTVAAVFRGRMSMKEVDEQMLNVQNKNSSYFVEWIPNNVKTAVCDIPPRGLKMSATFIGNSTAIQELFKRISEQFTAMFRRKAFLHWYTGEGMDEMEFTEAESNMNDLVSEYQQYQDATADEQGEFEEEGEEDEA

Row | SMILES | IC50 [nM]
1 | COCCNc1ccc(C(=O)Nc2cccc(S(=O)(=O)C3CCCC3)c2)c(N2CCC3(CC2)CC3)n1 [Example 103-1, N-(3-(cyclopentylsulfonyl)phenyl)-6-((2-methoxyethyl)amino)-2-(6-azaspiro[2.5]octan-6-yl)nicotinamide] | 60
2 | O=C(Nc1cccc(S(=O)(=O)C2CCCC2)c1)c1ccc(NCCCO)nc1N1CCC2(CC1)CC2 [Example 103-2, N-(3-(cyclopentylsulfonyl)phenyl)-6-((3-hydroxypropyl)amino)-2-(6-azaspiro[2.5]octan-6-yl)nicotinamide] | 47
3 | O=C(Nc1cccc(S(=O)(=O)C2CCCC2)c1)c1ccc(NC2(CO)CC2)nc1N1CCC2(CC1)CC2 [Example 103-4, N-(3-(cyclopentylsulfonyl)phenyl)-6-((1-(hydroxymethyl)cyclopropyl)amino)-2-(6-azaspiro[2.5]octan-6-yl)nicotinamide] | 39
4 | O=C(Nc1cccc(S(=O)(=O)C2CCCC2)c1)c1ccc(NC2(CO)CCC2)nc1N1CCC2(CC1)CC2 [Example 103-5, N-(3-(cyclopentylsulfonyl)phenyl)-6-((1-(hydroxymethyl)cyclobutyl)amino)-2-(6-azaspiro[2.5]octan-6-yl)nicotinamide] | 54
5 | O=C(Nc1cccc(S(=O)(=O)C2CCCC2)c1)c1ccc(NC2(CO)COC2)nc1N1CCC2(CC1)CC2 [Example 103-6, N-(3-(cyclopentylsulfonyl)phenyl)-6-((3-(hydroxymethyl)oxetan-3-yl)amino)-2-(6-azaspiro[2.5]octan-6-yl)nicotinamide] | 39
6 | O=C(Nc1cccc(S(=O)(=O)C2CCCC2)c1)c1ccc(NCC2(O)CC2)nc1N1CCC2(CC1)CC2 [Example 103-8, N-(3-(cyclopentylsulfonyl)phenyl)-6-(((1-hydroxycyclopropyl)methyl)amino)-2-(6-azaspiro[2.5]octan-6-yl)nicotinamide] | 42
7 | C[C@@H](CO)Nc1ccc(C(=O)Nc2cccc(S(=O)(=O)C3CCCC3)c2)c(N2CCC3(CC2)CC3)n1 [Example 103-9, (S)-N-(3-(cyclopentylsulfonyl)phenyl)-6-((1-hydroxypropan-2-yl)amino)-2-(6-azaspiro[2.5]octan-6-yl)nicotinamide] | 42
8 | C[C@H](CO)Nc1ccc(C(=O)Nc2cccc(S(=O)(=O)C3CCCC3)c2)c(N2CCC3(CC2)CC3)n1 [Example 103-10, (R)-N-(3-(cyclopentylsulfonyl)phenyl)-6-((1-hydroxypropan-2-yl)amino)-2-(6-azaspiro[2.5]octan-6-yl)nicotinamide] | 42
9 | O=C(Nc1cccc(S(=O)(=O)C2CCCC2)c1)c1ccc(NC2COC2)nc1N1CCC2(CC1)CC2 [Example 103-13, N-(3-(cyclopentylsulfonyl)phenyl)-6-(oxctan-3-ylamino)-2-(6-azaspiro[2.5]octan-6-yl)nicotinamide] | 43
10 | O=C(Nc1cccc(S(=O)(=O)C2CCCC2)c1)c1ccc(N[C@@H]2CC[C@H]2O)nc1N1CCC2(CC1)CC2 [Example 103-14, N-(3-(cyclopentylsulfonyl)phenyl)-6-(((1R,2R)-2-hydroxycyclobutyl)amino)-2-(6-azaspiro[2.5]octan-6-yl)nicotinamide] | 161
11 | O=C(Nc1cccc(S(=O)(=O)C2CCCC2)c1)c1ccc(N[C@@H]2CCOC2)nc1N1CCC2(CC1)CC2 [Example 103-15, (R)-N-(3-(cyclopentylsulfonyl)phenyl)-2-(6-azaspiro[2.5]octan-6-yl)-6-((tetrahydrofuran-3-yl)amino)nicotinamide] | 51
12 | O=C(Nc1cccc(S(=O)(=O)C2CCCC2)c1)c1ccc(N[C@H]2CCOC2)nc1N1CCC2(CC1)CC2 [Example 103-16, (S)-N-(3-(cyclopentylsulfonyl)phenyl)-2-(6-azaspiro[2.5]octan-6-yl)-6-((tetrahydrofuran-3-yl)amino)nicotinamide] | 115
13 | O=C(Nc1cccc(S(=O)(=O)C2CCCC2)c1)c1ccc(NCC2(O)CCC2)nc1N1CCC2(CC1)CC2 [Example 103-17, N-(3-(cyclopentylsulfonyl)phenyl)-6-(((1-hydroxycyclobutyl)methyl)amino)-2-(6-azaspiro[2.5]octan-6-yl)nicotinamide] | 168
14 | O=C(Nc1cccc(S(=O)(=O)C2CCCC2)c1)c1ccc(NC2(CCO)CC2)nc1N1CCC2(CC1)CC2 [Example 103-19, N-(3-(cyclopentylsulfonyl)phenyl)-6-((1-(2-hydroxyethyl)cyclopropyl)amino)-2-(6-azaspiro[2.5]octan-6-yl)nicotinamide] | 55
15 | O=C(Nc1cccc(S(=O)(=O)C2CCCC2)c1)c1ccc(N2CC(CO)C2)nc1N1CCC2(CC1)CC2 [Example 103-20, N-(3-(cyclopentylsulfonyl)phenyl)-6-(3-(hydroxymethyl)azetidin-1-yl)-2-(6-azaspiro[2.5]octan-6-yl)nicotinamide] | 141
16 | O=C(Nc1cccc(S(=O)(=O)C2CCCC2)c1)c1ccc(N2CC(O)C2)nc1N1CCC2(CC1)CC2 [Example 103-21, N-(3-(cyclopentylsulfonyl)phenyl)-6-(3-hydroxyazetidin-1-yl)-2-(6-azaspiro[2.5]octan-6-yl)nicotinamide] | 118
17 | CN(C)CCNc1ccc(C(=O)Nc2cccc(S(=O)(=O)C3CCCC3)c2)c(N2CCC3(CC2)CC3)n1 [Example 103-22, N-(3-(cyclopentylsulfonyl)phenyl)-6-((2-(dimethylamino)ethyl)amino)-2-(6-azaspiro[2.5]octan-6-yl)nicotinamide] | 678
18 | CCNc1ccc(C(=O)Nc2cccc(S(=O)(=O)C3CCCC3)c2)c(N2CCC3(CCC3)CC2)n1 [Example 103-23, N-(3-(cyclopentylsulfonyl)phenyl)-6-(ethylamino)-2-(7-azaspiro[3.5]nonan-7-yl)nicotinamide] | 97

Second part, the compound after the results:

Row | IC50 [nM] | SMILES
19 | 80 | CC(C)(C)NS(=O)(=O)c1cccc(NC(=O)c2ccc(NC3(CO)COC3)nc2N2CCC3(CC2)CC3)c1 [Example 102-27, N-(3-(N-(tert-butyl)sulfamoyl)phenyl)-6-((3-(hydroxymethyl)oxetan-3-yl)amino)-2-(6-azaspiro[2.5]octan-6-yl)nicotinamide]
20 | 71 | CC(C)(C)NS(=O)(=O)c1cccc(NC(=O)c2ccc(NC3(CO)CCC3)nc2N2CCC3(CC2)CC3)c1 [Example 102-28, N-(3-(N-(tert-butyl)sulfamoyl)phenyl)-6-((1-(hydroxymethyl)cyclobutyl)amino)-2-(6-azaspiro[2.5]octan-6-yl)nicotinamide]
21 | 98 | CC(C)(C)NS(=O)(=O)c1cccc(NC(=O)c2ccc(N[C@H]3C[C@@H](O)C3)nc2N2CCC3(CC2)CC3)c1 [Example 102-29, N-(3-(N-(tert-butyl)sulfamoyl)phenyl)-6-(((1S,3S)-3-hydroxycyclobutyl)amino)-2-(6-azaspiro[2.5]octan-6-yl)nicotinamide]
22 | 81 | CC(C)(C)NS(=O)(=O)c1cccc(NC(=O)c2ccc(NCCCO)nc2N2CCC3(CC2)CC3)c1 [Example 102-30, N-(3-(N-(tert-butyl)sulfamoyl)phenyl)-6-((3-hydroxypropyl)amino)-2-(6-azaspiro[2.5]octan-6-yl)nicotinamide]
23 | 317 | CC(C)(C)NS(=O)(=O)c1cccc(NC(=O)c2ccc(NCc3ccccc3)nc2N2CCC3(CC2)CC3)c1 [Example 102-31, 6-(benzylamino)-N-(3-(N-(tert-butyl)sulfamoyl)phenyl)-2-(6-azaspiro[2.5]octan-6-yl)nicotinamide]
24 | 58 | CC(C)(O)CNc1ccc(C(=O)Nc2cccc(S(=O)(=O)C3CCCC3)c2)c(N2CCC3(CC2)CC3)n1 [Example 103, N-(3-(Cyclopentylsulfonyl)phenyl)-6-((2-hydroxy-2-methylpropyl)amino)-2-(6-azaspiro[2.5]octan-6-yl)nicotinamide]
25 | 90 | CC(C)(C)Nc1ccc(C(=O)Nc2cccc(S(=O)(=O)C3CCCC3)c2)c(N2CCC3(CC2)CC3)n1 [Example 103-3, 6-(tert-butylamino)-N-(3-(cyclopentylsulfonyl)phenyl)-2-(6-azaspiro[2.5]octan-6-yl)nicotinamide]
26 | 47 | CC(C)(CCO)Nc1ccc(C(=O)Nc2cccc(S(=O)(=O)C3CCCC3)c2)c(N2CCC3(CC2)CC3)n1 [Example 103-7, N-(3-(cyclopentylsulfonyl)phenyl)-6-((4-hydroxy-2-methylbutan-2-yl)amino)-2-(6-azaspiro[2.5]octan-6-yl)nicotinamide]
27 | 76 | C[C@@H](O)CNc1ccc(C(=O)Nc2cccc(S(=O)(=O)C3CCCC3)c2)c(N2CCC3(CC2)CC3)n1 [Example 103-11, (R)-N-(3-(cyclopentylsulfonyl)phenyl)-6-((2-hydroxypropyl)amino)-2-(6-azaspiro[2.5]octan-6-yl)nicotinamide]
28 | 65 | C[C@H](O)CNc1ccc(C(=O)Nc2cccc(S(=O)(=O)C3CCCC3)c2)c(N2CCC3(CC2)CC3)n1 [Example 103-12, (S)-N-(3-(cyclopentylsulfonyl)phenyl)-6-((2-hydroxypropyl)amino)-2-(6-azaspiro[2.5]octan-6-yl)nicotinamide]
29 | 109 | CC(C)(O)C(C)(C)Nc1ccc(C(=O)Nc2cccc(S(=O)(=O)C3CCCC3)c2)c(N2CCC3(CC2)CC3)n1 [Example 103-18, N-(3-(cyclopentylsulfonyl)phenyl)-6-((3-hydroxy-2,3-dimethylbutan-2-yl)amino)-2-(6-azaspiro[2.5]octan-6-yl)nicotinamide]

Reference: patent US12540129B2, “KIF18A inhibitors” (AMGEN INC., priority 2019, dated 2026)
